Consider 15 compounds from publication PMC4643876, “Picomolar Inhibition of Plasmepsin V, an Essential Malaria Protease, Achieved Exploiting the Prime Region” (PLoS ONE, 2015).

Values joined by “and” are separate entries in the source; they are usually repeats but may differ in a detail not shown here. Equal entries are not always repeated. Where two headings read alike, the source gives them in different places. Square brackets hold non-standard residues; d marks the D form. Peptide text beside a SMILES is read from it. * marks the point of attachment. DABCYL = CN(C)c1ccc(/N=N/c2ccc(C(=O)*)cc2)cc1; EDANS = O=S(=O)(O)c1cccc2c(NCCN*)cccc12; Sta = CC(C)C[C@H](N)[C@@H](O)CC(=O)O; Isovaleryl = CC(C)CC(=O)*

The target in experiment [1] is T1, Plasmepsin V (PmV) (Plasmodium falciparum, UniProt Q8I6Z5).
T1 construct: PmV was purified directly from parasites; made in house
Description: PmV inhibition, fluorimetric PExEl cleavage assay. It is filed as biochemical. As to the method:
Saponin was added to culture to a final 0.05%; parasites were recovered via centrifugation at 4°C after 5 min of incubation on ice; parasite pellets were then washed twice in cold PBS and either immediately lysed or stored at -80°C until lysis. Parasites were lysed via three pulses of ultra-sonication of 10 sec duration, in PBS containing 0.5% Triton-X100 (TX-100). […] Quick washes of the resin were performed either in batches, or over columns, to remove unbound cellular material (four with ice-cold 0.5% TX-100 in PBS and a final one with cold PBS). Resin-bound PmV was stored in PBS at 4°C and used within 2–3 weeks, larger batches had Glycerol added to them, up to 10%, and were stored at -20°C for up to 5 months. […] Quality and purity of PmV batches were routinely confirmed by protein electrophoresis. Quantification of PmV was performed via densitometry analysis of stained protein SDS-PAGE gels relative to BSA standard curves.
(§1) PExEl cleavage activity was monitored by fluorimetric measurement of PExEl cleavage, as previously reported. […] PmV activity was performed at 37°C in 50 mM Tris-Maleate, pH 6.5, 50 mM NaCl, 0.05% TX-100, 2 mM DTT. Assays were routinely conducted in triplicate. Bead-bound enzyme was added to the reaction using ‘end-cut’ micropipette tips in order to facilitate sampling the suspension.
Inhibitory activities were measured in the presence of a substrate concentration of 3 μM by serial dilution of each compound in triplicates. […] Titration curves of the inhibitors were routinely composed of eleven points from 10 μM to 0.1 pM. PmV concentration was kept in the order of low picomolar (≤10 pM). […] Analysis of the half inhibitory activity (IC50) was performed by sigmoidal interpolation of the starting velocities of the hydrolytic reactions for each condition. Starting velocities were calculated on the initial linear range of the product progression curves. […] Data are presented with error bars indicating the standard deviation of three independent activity curves.

Experiment [2] relates to Plasmodium falciparum strain 3D7. As to the kind of experiment: Parasite growth inhibition by flow cytometry, strain 3D7. The experiment is classed as cell-based. The conditions noted are these: asynchronous 3D7 cultures, about 4 days, 0.195–200 μM, flow cytometry.
For another experiment, the system named is clone DC6. As to the kind of experiment: Growth curve analysis over 10 days, clone DC6. It is filed as cell-based, Plasmodium falciparum. Also on record: growth rate (r): unit not given here. The conditions noted are these: 0.75 μM Shield-1. The source says: (§2) Fig 14 PmV-GFP-DD clone G6 generation and characterization. (A) Creation of a PmV-GFP-DD chimera by homologous recombination. […] The plasmid contains sequence from the PmV ORF 3’ end in frame with GFP-DD [24]. Relative positions of BsrGI restriction sites (vertical bars) and the probe are indicated. (B) Southern blot of BsrGI-restricted DNA from the parental strain 3D7, the 3 drug cycles (Selection I, II, III), 3 of the isolated clones, among which G6 is number 3, and the transfected plasmid (at the far right) is shown. Arrows: endogenous gene (blue), and modified PmV locus (green). (C) Live microscopy of the clone expressing the cytosolic YFP-DD chimera (via episomally maintained plasmid) and G6 in presence or absence of 0.5 μM Shield-1. Top to Bottom: bright field (grey), Hoechst (blue), fluorescent proteins (green), Lysotracker (red), merges of the blue and green channels and of all three channels. (D) Western blot of total lysates of parasites at diverse concentrations of Shield-1 (0–1 μM): clone DC6, clone G6 and 3D7 expressing YFP-DD. PmV was detected with both anti-GFP and anti-PmV. BiP detection served as loading control. (E) Live microscopy of the G6 clone expressing the PmV-GFP-DD chimera at various Shield-1 concentrations (0–1 μM). (F) PmV levels from DC6 (green) and G6 (red) were quantified from blot (panel D) and plotted as ratio of PmV to BiP. The last point of the ratio is affected by a reduced BiP expression in 1 μM Shield-1. This is possibly due to the level of toxicity of this molecule at high concentrations. (G) Flow cytometry analysis of the GFP signal of PmV-GFP-DD (clone G6) in presence (green line) or absence (red line) of 0.75 μM Shield-1 in respect of PmV-GFP (clone DC6) (black line). The cellular levels of PmV-GFP(±DD) are similar in the presence 0.75 μM Shield-1 while PmV-GFP-DD is about 4 times less than PmV-GFP in the absence of Shield-1. (H) Growth curve analysis over 10 days for PmV-GFP-DD and DC6 in the presence or absence of 0.75 μM Shield-1.

In another experiment the test system is clone G6 (PmV-GFP-DD). Description: Growth curve analysis over 10 days, clone G6. The experiment is classed as cell-based, Plasmodium falciparum. Also on record: growth rate (r): unit not given here. The conditions noted are these: 0.75 μM Shield-1.
Text: as §2

Experiment [3] deals with T1, Plasmepsin V (PmV). Description: PmV steady-state kinetics of substrate hydrolysis. It is filed as biochemical. On the procedure: as §1
Steady-state measurements of PmV substrate hydrolysis were analyzed assuming the widely accepted aspartic protease mechanism, E + S → ES → ET* → EP → E + P, where P is the product of the reaction; S is the substrate; E is the free enzyme; ES, ET* and EP denote the enzyme-substrate, the transition state and enzyme-product adducts, respectively. The measurement of steady-state velocity of product formation, v = d[P]/dt, yielded catalytic constants according to the classical Michaelis-Menten equation v = e * kcat *[S] / ([S] + K M), where e is enzyme concentration. In our experimental conditions the fluorescence of HETQ-EDANS (AnaSpec), the reaction product (P), was quantified by titration. PmV kinetics parameters were calculated using non-linear curve-fitting analyses from SigmaPlot on the basis of measurements with multiple substrate concentrations monitored until the completion of the reaction. […]

Where [4] appears, read: 3 μM HRPII-PExEl substrate, averages of not less than three inhibition curves, read-out: IC50.

T1 sequence (Q8I6Z5 whole entry): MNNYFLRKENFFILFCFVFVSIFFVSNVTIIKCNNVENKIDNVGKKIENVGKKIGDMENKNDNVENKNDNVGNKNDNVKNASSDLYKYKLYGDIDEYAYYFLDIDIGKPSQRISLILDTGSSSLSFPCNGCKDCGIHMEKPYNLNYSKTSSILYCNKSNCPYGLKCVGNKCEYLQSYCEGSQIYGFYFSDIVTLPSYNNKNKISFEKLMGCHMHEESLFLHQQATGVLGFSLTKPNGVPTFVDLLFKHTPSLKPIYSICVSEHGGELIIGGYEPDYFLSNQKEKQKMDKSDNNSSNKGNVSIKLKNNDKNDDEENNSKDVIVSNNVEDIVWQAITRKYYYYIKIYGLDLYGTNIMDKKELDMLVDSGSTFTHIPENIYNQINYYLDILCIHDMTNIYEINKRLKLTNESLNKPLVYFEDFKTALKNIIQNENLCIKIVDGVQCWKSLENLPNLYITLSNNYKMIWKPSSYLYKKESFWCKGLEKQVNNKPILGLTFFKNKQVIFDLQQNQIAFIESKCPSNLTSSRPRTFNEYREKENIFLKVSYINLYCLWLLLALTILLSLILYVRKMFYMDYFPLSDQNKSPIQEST

By Ki is commonly meant a dissociation constant, usually derived from enzyme kinetics or from competition with a known ligand. The term IC50 denotes the point on the concentration scale where inhibition reaches its midpoint. Consider `CC(C)C[C@H](NC(=O)[C@@H](N)CCCNC(=N)N)C(=O)N[C@@H](CC(C)C)C(O)CN[C@@H](C)C(=O)N[C@@H](CCC(=O)O)C(=O)N[C@@H](C)C(=O)O` (mixture of isomers) [Compound 4], for which, on Plasmepsin V (PmV) [1], the “IC50 increase compared to Compound 1” value is 1.3–3.5 fold and the affinity, expressed as Ki, was 0.7 nM. Besides, the IC50 at Plasmepsin V (PmV) [1] (setting [4]) was determined as 1.31 nM. For the same compound, the LD50 growth inhibition in experiment [2] is more than 200 µM.
For `CC[C@H](C)[C@H](NC(=O)[C@@H](N)CCCNC(=N)N)C(=O)N[C@@H](CC(C)C)C(O)CN[C@@H](C)C(=O)N[C@@H](CCC(=O)O)C(=O)N[C@@H](C)C(N)=O` (mixture of isomers) [Compound 5], the Ki on Plasmepsin V (PmV) [1] is 0.35 nM. Moreover, the IC50 at Plasmepsin V (PmV) [1] (setting [4]) was determined as 0.65 nM. The compound also yielded an LD50 growth inhibition in experiment [2] of more than 200 µM.
Take `CC[C@H](C)[C@H](NC(=O)[C@@H](N)CCCNC(=N)N)C(=O)N[C@@H](CC(C)C)C(O)CN[C@@H](C)C(=O)N[C@@H](CCC(=O)O)C(=O)N[C@@H](C)C(=O)O` (mixture of isomers) [Compound 6]: at Plasmepsin V (PmV) [1], the “IC50 increase compared to Compound 5” value is recorded as 1.3–3.5 fold and the Ki was found to be 1.16 nM. Moreover, the IC50 at Plasmepsin V (PmV) [1] (setting [4]) is 2.16 nM. The LD50 growth inhibition in experiment [2] was more than 200 µM.
On to `CSCC[C@H](N)C(=O)N[C@@H](CC(C)C)C(=O)N[C@@H](CC(C)C)C(O)CN[C@@H](C)C(=O)N[C@@H](CCC(=O)O)C(=O)N[C@@H](C)C(=O)O` (mixture of isomers) [Compound 16], for which the IC50 was more than 10000 nM on Plasmepsin V (PmV) [1] (setting [4]) and “completely inactive” at Plasmepsin V (PmV) [1] (3 μM substrate, tested up to 10 μM). Also, the LD50 growth inhibition in experiment [2] was more than 200 µM.
`CC(=O)N[C@@H](CCCNC(=N)N)C(=O)N[C@@H](CC(C)C)C(=O)N[C@@H](CC(C)C)C(O)CN[C@@H](C)C(=O)N[C@@H](CCC(N)=O)C(=O)N[C@@H](C)C(N)=O` (mixture of isomers) [Compound 35] gave a Ki at Plasmepsin V (PmV) [1] of 63.5 nM. At Plasmepsin V (PmV) [1] (setting [4]), the IC50 is 118 nM. Moreover, the LD50 growth inhibition in experiment [2] was 16.5 μM and ~ 16.5 μM.
In the case of `CC(C)C[C@H](NC(=O)[C@@H](N)CCCNC(=N)N)C(=O)N[C@@H](CC(C)C)[C@@H](O)CN[C@@H](C)C(=O)N[C@@H](CCC(N)=O)C(=O)N[C@@H](C)C(N)=O` [Compound 8a], at Plasmepsin V (PmV) [1], the “IC50 increase compared to Compound 1” value is ~ 4 fold and the Ki stood at 0.83 nM. Further, the IC50 on Plasmepsin V (PmV) [1] (setting [4]) was determined as 1.55 nM. Also, the LD50 growth inhibition in experiment [2] was found to be 64.1 µM.
Regarding `CC(C)C[C@H](NC(=O)[C@@H](N)CCCNC(=N)N)C(=O)N[C@@H](CC(C)C)[C@H](O)CN[C@@H](C)C(=O)N[C@@H](CCC(N)=O)C(=O)N[C@@H](C)C(N)=O` [Compound 8b], the LD50 growth inhibition in experiment [2] is ~ 120.5 μM.
For `CC(C)C[C@H](NC(=O)[C@@H](N)Cc1c[nH]c2ccccc12)C(=O)N[C@@H](CC(C)C)[C@@H](O)CN[C@@H](C)C(=O)N[C@@H](CCC(=O)O)C(=O)N[C@@H](C)C(N)=O` [Compound 15a], at Plasmepsin V (PmV) [1], the affinity corresponds to a Ki of 1380 nM. Moreover, on Plasmepsin V (PmV) [1] (setting [4]), the IC50 turned out to be 2570 nM. In addition, the LD50 growth inhibition in experiment [2] was ~ 100.5 μM.
On the same counts, the results for `CC(C)C[C@H](NC(=O)[C@@H](N)CCC(N)=O)C(=O)N[C@@H](CC(C)C)[C@@H](O)CN[C@@H](C)C(=O)N[C@@H](CCC(=O)O)C(=O)N[C@@H](C)C(=O)O` [Compound 17a] are 2360 nM, 4390 nM and more than 200 µM.
In the case of `CCCCCCCC(=O)N[C@@H](CCCNC(=N)N)C(=O)N[C@@H](CC(C)C)C(=O)N[C@@H](CC(C)C)[C@@H](O)CN[C@@H](Cc1ccc(O)cc1)C(=O)N[C@@H](CCC(=O)O)C(=O)N[C@@H](C)C(N)=O` [Compound 37a], at Plasmepsin V (PmV) [1], the affinity corresponds to a Ki of 0.01 nM and the “fold more active than parent compound 7a” value is given as “more than 50 fold”. Further, the IC50 at Plasmepsin V (PmV) [1] (setting [4]) was 0.023 nM. The IC50 at Plasmepsin V (PmV) [1] (3 μM substrate, read-out: IC50) was approximately 0.023 nM. The compound further registered an LD50 growth inhibition in experiment [2] of more than 200 µM.
`O=c1oc2c(O)c(O)cc3c(=O)oc4c(O)c(O)cc1c4c23` [Ellagic acid, reference compound] displayed an LD50 growth inhibition in experiment [2] of 2.4 µM.
Take `Cc1cccc(C)c1OCC(=O)N[C@@H](Cc1ccccc1)[C@@H](O)C[C@H](Cc1ccccc1)NC(=O)[C@H](C(C)C)N1CCCNC1=O` [Lopinavir, reference compound]: on Plasmepsin V (PmV) [1], the Ki was 11000 nM. For the same compound, on Plasmepsin V (PmV) [1] (setting [4]), the IC50 turned out to be 20600 nM.
Turning to `CC(C)CC(=O)N[C@H](C(=O)N[C@H](C(=O)N[C@@H](CC(C)C)[C@@H](O)CC(=O)N[C@@H](C)C(=O)N[C@@H](CC(C)C)[C@@H](O)CC(=O)O)C(C)C)C(C)C` [Pepstatin A, reference compound] (Isovaleryl-VV[Sta]A[Sta]-OH), the inhibition constant (Ki) on Plasmepsin V (PmV) [1] is 23400 nM. Further, the IC50 on Plasmepsin V (PmV) [1] (setting [4]) is 43500 nM.
Regarding `CC[C@H](C(=O)N1CCCC[C@H]1C(=O)O[C@H](CCc1ccc(OC)c(OC)c1)c1cccc(OCCN2CCOCC2)c1)c1cc(OC)c(OC)c(OC)c1` [Shield-1], in the experiment with clone DC6, the “doubling time (T)” value is listed as 34.83 h, the “growth constant (k)” value came to 0.0199 and the “growth rate (r)” value was found to be 2.01. In the experiment on clone G6 (PmV-GFP-DD), the “doubling time (T)” value came out at 34.15 h, the “growth constant (k)” value turned out to be 0.0203 and the “growth rate (r)” value stood at 2.05.
For orientation: Km means the substrate concentration at which the rate is half of its maximum. With “DABCYL-LNKRLLHETQ-EDANS ({DABCYL}-LNKRLLHETQ-{EDANS}; SMILES CC(C)C[C@H](NC(=O)c1ccc(/N=N/c2ccc(N(C)C)cc2)cc1)C(=O)N[C@@H](CC(N)=O)C(=O)N[C@@H](CCCCN)C(=O)N[C@@H](CCCNC(=N)N)C(=O)N[C@@H](CC(C)C)C(=O)N[C@@H](CC(C)C)C(=O)N[C@@H](Cc1c[nH]cn1)C(=O)N[C@@H](CCC(=O)O)C(=O)N[C@H](C(=O)N[C@@H](CCC(N)=O)C(=O)NCCNc1cccc2c(S(=O)(=O)O)cccc12)[C@@H](C)O) [HRPII-derived fluorogenic substrate of PmV]”, in the experiment with Plasmepsin V (PmV) [3], the Km worked out at 3.48 µM. In addition, the “K M” value with Plasmepsin V (PmV) [3] (substrate 0.19 to 6 μM) was 3.48 (±0.7) 10^−6 M.
